“And” between values parts separate entries of the source, which are not always exact repeats. Identical values can stand only once.
Assay: molar heat capacity at constant pressure
Settings: 101.33 kPa, Vacuum adiabatic calorimetry

Cc1ccc(-c2ccccc2)cc1 [4-methylbiphenyl]
Settings	molar heat capacity at constant pressure
200.03 K, Crystal 2	158.25 J/K/mol
201.21 K, Crystal 2	159.08 J/K/mol
202.67 K, Crystal 2	160.39 J/K/mol
204.13 K, Crystal 2	161.16 J/K/mol
205.59 K, Crystal 2	161.88 J/K/mol
207.05 K, Crystal 2	163.01 J/K/mol
208.5 K, Crystal 2	164.47 J/K/mol
209.95 K, Crystal 2	165.42 J/K/mol
211.41 K, Crystal 2	166.95 J/K/mol
212.86 K, Crystal 2	167.72 J/K/mol
214.31 K, Crystal 2	168.81 J/K/mol
215.75 K, Crystal 2	169.75 J/K/mol
217.19 K, Crystal 2	170.91 J/K/mol
218.63 K, Crystal 2	172.34 J/K/mol
220.07 K, Crystal 2	173.54 J/K/mol
221.51 K, Crystal 2	174.81 J/K/mol
224.33 K, Crystal 2	177.09 J/K/mol
225.77 K, Crystal 2	178.63 J/K/mol
227.21 K, Crystal 2	179.26 J/K/mol
228.64 K, Crystal 2	180.46 J/K/mol
230.07 K, Crystal 2	181.65 J/K/mol
231.5 K, Crystal 2	183.05 J/K/mol
232.92 K, Crystal 2	183.59 J/K/mol
234.35 K, Crystal 2	184.76 J/K/mol
235.77 K, Crystal 2	186 J/K/mol
237.2 K, Crystal 2	186.68 J/K/mol
238.62 K, Crystal 2	188.83 J/K/mol
240.04 K, Crystal 2	189.96 J/K/mol
241.46 K, Crystal 2	190.95 J/K/mol
242.88 K, Crystal 2	191.92 J/K/mol
245.71 K, Crystal 2	194.12 J/K/mol
247.06 K, Crystal 2	195.69 J/K/mol
248.47 K, Crystal 2	196.82 J/K/mol
249.87 K, Crystal 2	197.8 J/K/mol
251.28 K, Crystal 2	198.95 J/K/mol
252.68 K, Crystal 2	199.51 J/K/mol
254.07 K, Crystal 2	203.15 J/K/mol
255.46 K, Crystal 2	205.87 J/K/mol
256.86 K, Crystal 2	204.64 J/K/mol
258.26 K, Crystal 2	207.95 J/K/mol
259.65 K, Crystal 2	209.9 J/K/mol
261.05 K, Crystal 2	211.67 J/K/mol
262.45 K, Crystal 2	213.5 J/K/mol
263.84 K, Crystal 2	216.69 J/K/mol
265.26 K, Crystal 2	218.04 J/K/mol
265.74 K, Crystal 2	214.98 J/K/mol
266.62 K, Crystal 2	215.48 J/K/mol
267.35 K, Crystal 2	216.35 J/K/mol
268.06 K, Crystal 2	216.34 J/K/mol
268.77 K, Crystal 2	218.41 J/K/mol
269.46 K, Crystal 2	217.65 J/K/mol
270.14 K, Crystal 2	220.43 J/K/mol
270.81 K, Crystal 2	221.73 J/K/mol
271.48 K, Crystal 2	224.8 J/K/mol
272.13 K, Crystal 2	226.98 J/K/mol
272.79 K, Crystal 2	228.68 J/K/mol
273.44 K, Crystal 2	230.85 J/K/mol
274.09 K, Crystal 2	231.46 J/K/mol
274.73 K, Crystal 2	233.58 J/K/mol
275.38 K, Crystal 2	235.91 J/K/mol
276.02 K, Crystal 2	236.58 J/K/mol
276.54 K, Crystal 2	238.77 J/K/mol
277.18 K, Crystal 2	240.39 J/K/mol
277.82 K, Crystal 2	243.02 J/K/mol
278.45 K, Crystal 2	244.38 J/K/mol
279.09 K, Crystal 2	245.39 J/K/mol
279.72 K, Crystal 2	247.06 J/K/mol
280.35 K, Crystal 2	249.06 J/K/mol
280.98 K, Crystal 2	250.28 J/K/mol
281.61 K, Crystal 2	250.82 J/K/mol
282.22 K, Crystal 2	253.9 J/K/mol
282.84 K, Crystal 2	255.25 J/K/mol
283.47 K, Crystal 2	256.25 J/K/mol
284.09 K, Crystal 2	257.26 J/K/mol
284.71 K, Crystal 2	258.2 J/K/mol
285.32 K, Crystal 2	261 J/K/mol
285.94 K, Crystal 2	262.67 J/K/mol
286.41 K, Crystal 2	265.19 J/K/mol
287.03 K, Crystal 2	266.14 J/K/mol
287.64 K, Crystal 2	267.86 J/K/mol
288.24 K, Crystal 2	270.21 J/K/mol
289.45 K, Crystal 2	271.63 J/K/mol
290.05 K, Crystal 2	274.89 J/K/mol
290.65 K, Crystal 2	278.67 J/K/mol
291.25 K, Crystal 2	281.37 J/K/mol
291.85 K, Crystal 2	283.3 J/K/mol
292.44 K, Crystal 2	287.63 J/K/mol
293.04 K, Crystal 2	291.45 J/K/mol
293.63 K, Crystal 2	298.7 J/K/mol
294.21 K, Crystal 2	301.08 J/K/mol
294.8 K, Crystal 2	306.74 J/K/mol
295.38 K, Crystal 2	315.73 J/K/mol
295.81 K, Crystal 2	323.56 J/K/mol
296.38 K, Crystal 2	356.89 J/K/mol
296.78 K, Crystal 2	604.38 J/K/mol
298.45 K, Crystal 1	252.48 J/K/mol
299.16 K, Crystal 1	242.36 J/K/mol
299.72 K, Crystal 1	239.35 J/K/mol
300.27 K, Crystal 1	238.79 J/K/mol
300.79 K, Crystal 1	244.43 J/K/mol
301.28 K, Crystal 1	240.52 J/K/mol
301.77 K, Crystal 1	242.22 J/K/mol
302.25 K, Crystal 1	243.96 J/K/mol
302.73 K, Crystal 1	242.88 J/K/mol
303.21 K, Crystal 1	243.63 J/K/mol
303.43 K, Crystal 1	242.23 J/K/mol
303.9 K, Crystal 1	242.44 J/K/mol
304.37 K, Crystal 1	241.56 J/K/mol
304.84 K, Crystal 1	243.77 J/K/mol
305.31 K, Crystal 1	244.44 J/K/mol
305.78 K, Crystal 1	244.15 J/K/mol
306.24 K, Crystal 1	244.23 J/K/mol
306.7 K, Crystal 1	245.51 J/K/mol
307.16 K, Crystal 1	246.05 J/K/mol
307.62 K, Crystal 1	246.17 J/K/mol
308.08 K, Crystal 1	246.5 J/K/mol
308.53 K, Crystal 1	247 J/K/mol
308.98 K, Crystal 1	247.25 J/K/mol
309.43 K, Crystal 1	248.47 J/K/mol
309.88 K, Crystal 1	249.54 J/K/mol
310.32 K, Crystal 1	249.25 J/K/mol
310.48 K, Crystal 1	249.45 J/K/mol
310.92 K, Crystal 1	251.3 J/K/mol
311.36 K, Crystal 1	251.5 J/K/mol
312.31 K, Crystal 1	256.21 J/K/mol
313.97 K, Crystal 1	264.83 J/K/mol
314.78 K, Crystal 1	273.5 J/K/mol
315.57 K, Crystal 1	291.72 J/K/mol
321.28 K, Liquid	289.67 J/K/mol
322.04 K, Liquid	290.27 J/K/mol
322.79 K, Liquid	290.67 J/K/mol
323.53 K, Liquid	290.73 J/K/mol
324.28 K, Liquid	291.55 J/K/mol
325.01 K, Liquid	291.28 J/K/mol
325.74 K, Liquid	291.46 J/K/mol
326.47 K, Liquid	293.2 J/K/mol
327.19 K, Liquid	292.01 J/K/mol
327.91 K, Liquid	293.22 J/K/mol
328.27 K, Liquid	292.87 J/K/mol
328.98 K, Liquid	293.44 J/K/mol
329.68 K, Liquid	293.4 J/K/mol
330.38 K, Liquid	294.27 J/K/mol
331.07 K, Liquid	293.42 J/K/mol
331.76 K, Liquid	294.54 J/K/mol
332.45 K, Liquid	294.83 J/K/mol
333.13 K, Liquid	295.75 J/K/mol
333.8 K, Liquid	295.68 J/K/mol
334.47 K, Liquid	295.42 J/K/mol
336.41 K, Liquid	298.11 J/K/mol
337.06 K, Liquid	298.19 J/K/mol
337.7 K, Liquid	298.22 J/K/mol
338.34 K, Liquid	298.05 J/K/mol
338.57 K, Liquid	298.82 J/K/mol
339.03 K, Liquid	300.03 J/K/mol
339.2 K, Liquid	299.1 J/K/mol
340.45 K, Liquid	299.61 J/K/mol
341.07 K, Liquid	299.94 J/K/mol
341.68 K, Liquid	301.45 J/K/mol
342.29 K, Liquid	300.21 J/K/mol
342.89 K, Liquid	301.42 J/K/mol
343.49 K, Liquid	302.55 J/K/mol
344.08 K, Liquid	301.94 J/K/mol
344.67 K, Liquid	303 J/K/mol
345.25 K, Liquid	303.08 J/K/mol
346.41 K, Liquid	304.11 J/K/mol
346.98 K, Liquid	304.03 J/K/mol
347.55 K, Liquid	304.56 J/K/mol
347.66 K, Liquid	303.66 J/K/mol
348.78 K, Liquid	306.1 J/K/mol
349.3 K, Liquid	305.23 J/K/mol
349.88 K, Liquid	305.3 J/K/mol
350.42 K, Liquid	305.41 J/K/mol
350.96 K, Liquid	306.68 J/K/mol
351.49 K, Liquid	306.74 J/K/mol
352.02 K, Liquid	307.44 J/K/mol
352.55 K, Liquid	307.72 J/K/mol
353.07 K, Liquid	307.31 J/K/mol
353.59 K, Liquid	308.24 J/K/mol
354.1 K, Liquid	307.67 J/K/mol
354.61 K, Liquid	308.41 J/K/mol
355.12 K, Liquid	308.12 J/K/mol
355.62 K, Liquid	308.6 J/K/mol and 307.85 J/K/mol
356.11 K, Liquid	307.9 J/K/mol
356.61 K, Liquid	309.76 J/K/mol
357.09 K, Liquid	308.25 J/K/mol
357.58 K, Liquid	309.03 J/K/mol
358.05 K, Liquid	309.85 J/K/mol
358.53 K, Liquid	309.78 J/K/mol
359 K, Liquid	309.73 J/K/mol
359.47 K, Liquid	309.75 J/K/mol
359.53 K, Liquid	309.84 J/K/mol
360.39 K, Liquid	310.32 J/K/mol
360.84 K, Liquid	311.4 J/K/mol
361.29 K, Liquid	311.64 J/K/mol
361.74 K, Liquid	310.99 J/K/mol
362.18 K, Liquid	311.55 J/K/mol
362.52 K, Liquid	311.51 J/K/mol
362.62 K, Liquid	311.89 J/K/mol
362.96 K, Liquid	311.52 J/K/mol
363.39 K, Liquid	310.96 J/K/mol
365.49 K, Liquid	313.17 J/K/mol
365.9 K, Liquid	312.29 J/K/mol
366.3 K, Liquid	313.49 J/K/mol
366.7 K, Liquid	314.04 J/K/mol
367.1 K, Liquid	313.11 J/K/mol
367.49 K, Liquid	314.44 J/K/mol
367.88 K, Liquid	314.05 J/K/mol
368.27 K, Liquid	313.75 J/K/mol
368.45 K, Liquid	313.66 J/K/mol
368.65 K, Liquid	313.35 J/K/mol
368.82 K, Liquid	312.67 J/K/mol
369.2 K, Liquid	314.01 J/K/mol
369.57 K, Liquid	314.85 J/K/mol
369.94 K, Liquid	314.67 J/K/mol
370.3 K, Liquid	314.64 J/K/mol
370.66 K, Liquid	315.15 J/K/mol
371.02 K, Liquid	314.85 J/K/mol
371.37 K, Liquid	314.45 J/K/mol
371.71 K, Liquid	316.2 J/K/mol
372.06 K, Liquid	315.57 J/K/mol
372.39 K, Liquid	315.1 J/K/mol

Source: the NIST ThermoML archive (doi:10.1016/j.jct.2010.05.002)
